Results taken from patent US20090281025A1, “INHIBITION OF TUMOR GROWTH AND METASTASIS BY ATF2-DERIVED PEPTIDES” (Mount Sinai School Of Medicine of New York University, priority 2004, published 2009).
Entries after “also recorded” stand apart in the source; their conditions may differ.

Legend:
[1] = tested on: Human melanoma cells LU1205; assay: Caspase and PARP cleavage immunoblot in LU1205 cells; assay type: cell-based; details: peptides by transfection, UCN-01 (5 μm) 24 hours
Protocol: (§1) Human melanoma cells LU1205 were transfected with the nucleic acid molecules that encode either ATF2^51-100 peptide or ATF2^51-60 peptide. Twenty-four hours after transfection, cells were treated with of UCN-01 (5 μm) for 24 hours. Immunoblotting analysis was performed using caspase 9 and PARP antibodies, and β-actin was used as a loading control (FIG. 6A). The same experiment was performed in SW-1 cells (FIG. 6B). Stars point to the position of the uncleaved form whereas arrows point to the cleaved products.
(§2) Effect on Apoptosis. Assessed next was the degree of apoptosis in SW1 cells under normal growth (spontaneous) as well as following treatment with chemotherapeutic drugs. Cells were analyzed to detect spontaneous (basal) or induced apoptosis [following treatment with the kinase inhibitor UCN-01 (kindly provided by NCI repository) for 36 hours]. Apoptosis was measured by using FACS (Ivanov et al., Mol. Cell, 2001, 7:517-28) to quantify the percentage of hypodiploid nuclei undergoing DNA fragmentation. Nucleation as a marker of apoptosis was monitored via DAPI staining of cells at indicated time points after their treatment. Caspase activity was monitored by immunoblots using antibodies to caspase 9 (Santa Cruz). PARP cleavage was monitored by corresponding antibodies (PharMingen).

SW-1 cells = assay: Caspase and PARP cleavage immunoblot in SW-1 cells; assay type: cell-based, mouse; details: peptides by transfection, UCN-01 (5 μm) 24 hours
Protocol: as §1, §2

TRE-Luc = TRE-Luc luciferase reporter assay in SW1 cells; assay type: cell-based, mouse; details: SW1 cells expressing peptide, luciferase after 18 hours
Protocol: (§3) SW1 cells constitutively expressing the indicated ATF2 peptides were transfected with either TRE-Luc (FIG. 5A) or with Jun2-Luc (FIG. 5B), and proteins were prepared for analysis of luciferase activity after 18 hours. Analysis was performed in duplicate, and the data reflect three independent experiments. SW1 cells expressing the ATF2 peptides were analyzed to establish the degree of spontaneous (basal) apoptosis as well as apoptosis 24 hours following treatment with the chemotherapeutic drug UCN-01 (FIG. 5C). The data represent triplicate analysis reproduced three times.
(§4) Alteration of ATF2 Transcriptional Activity. Assessed next was whether the short peptide caused any change in transcriptional activity mediated by ATF2 and its heterodimeric partners, using the TRE and Jun2 promoter sequences linked to the Luciferase marker gene. These reporter constructs (0.3 μg) were cotransfected with the respective expression vectors into melanoma cells (5×10^5) using Lipofectamine (Invitrogen). Luciferase activity was measured using the Luciferase assay system (Promega).

JNK-c-Jun association = biological target: T1, JNK-c-Jun association (Homo sapiens, UniProt P45984); assay: In vitro association of bead-bound JNK with c-Jun; assay type: binding; details: 35S-labeled in vitro translated c-Jun, synthetic peptide
T1 construct: made in house; host or cells: JNK2 from transfected 293T cells; c-Jun from the TNT-coupled reticulocyte lysate system (Promega)
Protocol: (§5) HA-JNK was transfected into 293T cells and 24 h later JNK was immunoprecipitated and bound to protein G beads. Bead-bound JNK was incubated with in vitro-translated c-Jun or ATF2 in the absence or presence of the wt or mutant form of ATF2^51-60. Following incubation bead-bound JNK was washed (see Example 4) and the amount of bound Jun or ATF2 was assessed via SDS-PAGE analysis subjected to autoradiography (Panel A) and quantification with the aid of a phosphor imager (Panels B and C).
(§6) Effect on JNK/Jun Association. The short peptide's ability to elicit major changes in TRE-dependent transcription and spontaneous apoptosis led to an assessment of possible changes in the JNK-Jun association. Flag JNK2 expressed in 293T cells extracted, immunopurified with anti-Flag antibody bound to Protein G agarose beads were first incubated with 3 mg/ml of BSA in phosphate-buffered saline for 2 h, followed by incubation at 4° C. for 2 h with ^35S-labeled in vitro translated c-Jun or ATF2 (TNT-coupled reticulocyte lysate system, Promega) in the presence of WT or mutant peptide. Bead-bound material was subjected to three washes with 20 mM Tris [pH 7.5], 150 mM NaCl, 1 mM EDTA, 1 mM EGTA, 0.5% NP-40, 1 mM NaVO4, and 1 mM DTT supplemented with protease inhibitors. […] Binding was detected by autoradiography and quantified with the aid of a phosphorimager. […]

SW1 melanoma cells = assay: Apoptosis of SW1 cells by FACS (hypodiploid nuclei); assay type: cell-based, mouse; details: SW1 cells expressing peptide, treated with UCN-01; given as control-to-peptide increase
Protocol: as §3, §2

SW1 cells = assay: Tumor growth of SW1 cells constitutively expressing ATF2 peptides, injected subcutaneously; assay type: in vivo, mouse; details: constitutive expression, 18 days
Protocol: SW1 cells, which constitutively express the peptides indicated in FIG. 4A, were analyzed to detect expression of ATF2 peptides at the RNA level using RT-PCR. The indicated MW bands reflect the expected size product. SW1 cells (10^6) were injected subcutaneously into […] mice and tumor growth was monitored for 18 days, at which point tumors were removed and their size carefully assessed (FIG. 4B). Each group included 6 animals and each experiment was performed twice (P<0.01; T-test).
Inhibition of Tumor Growth. To examine the importance of the JNK association domain on ATF2, the possible role of a smaller peptide containing an intact JNK binding site (i.e., amino acids M^51T^52 of ATF2) was examined. To this end, three peptides of differing sizes (amino acids 51-80, 51-70, and 51-60) were compared to ATF2^51-100 peptide in their ability to inhibit tumor growth of SW1 cells in vivo. RT-PCR reactions confirmed the expression of these peptides' transcripts in the SW1 cells (FIG. 4A). […] However, expression of the 50aa peptide in these cells (constitutive expression based on selection of drug-resistant cells) decreased tumor size to 300 mm^3. Strikingly, constitutive expression of each of the 3 shorter peptides also elicited inhibition of melanoma growth that varied from 400-600 mm^3 (FIG. 4B). […] Further evaluation was performed on this 10 amino acid peptide.

JNK-ATF2 association = biological target: T2, JNK-ATF2 association (Homo sapiens, UniProt P45984); assay: In vitro association of bead-bound JNK with ATF2; assay type: binding; details: 35S-labeled in vitro translated ATF2, synthetic peptide
T2 construct: made in house; host or cells: JNK2 from transfected 293T cells; ATF2 from the TNT-coupled reticulocyte lysate system (Promega)
Protocol: as §5, §6

Jun2-Luc = Jun2-Luc luciferase reporter assay in SW1 cells; assay type: cell-based, mouse; details: SW1 cells expressing peptide, luciferase after 18 hours
Protocol: as §3, §4

Row | Molecule | PARP cleavage [1] | activation of caspase 9 (cleavage fragments) [1] | PARP cleavage (SW-1 cells) | activation of caspase 9 (cleavage fragments) (SW-1 cells) | TRE-Luc activity (TRE-Luc) | association between JNK and c-Jun (JNK-c-Jun association) | UCN-01-induced apoptosis (SW1 melanoma cells) | inhibition of SW1 melanoma growth in vivo (SW1 cells) | inhibition of SW1 melanoma growth in vivo (SW1 cells; listed as 51-60) | JNK-ATF2 association (JNK-ATF2 association) | Jun2-Luc transcriptional activity (Jun2-Luc) | Jun2-Luc transcriptional activity (Jun2-Luc; listed as 51-60 amino acid peptide)
1 | CN[C@@H]1C[C@H]2O[C@@](C)([C@@H]1OC)n1c3ccccc3c3c4c(c5c6ccccc6n2c5c31)C(=O)N[C@@H]4O [UCN-01, reference compound] | PARP cleavage was observed | caused activation of caspase 9 | PARP cleavage was observed | caused activation of caspase 9 |  |  |  |  |  |  |  | 
2 | ATF2^51-60: ATF2 peptide from amino acid residue 51 to 60 (about a 10 amino acid peptide); expressed in cells or synthesized (MTLKFGPARN; UniProt P15336 51-60, looked up, fragment) |  | activation of caspase 9 even prior to treatment with UCN-01 |  | activation of caspase 9 even prior to treatment with UCN-01 | efficient in increasing TRE-Luc activities; also recorded: increases TRE-Luc activity | increases the in vitro association between JNK and c-Jun in a dose-dependent manner; also recorded: increases Jun association with JNK | 20-40% | inhibits melanoma growth in vivo | efficient inhibition close to that observed with the 50 amino acid peptide | not observed | does not significantly affect Jun2-Luc activity | no longer inhibited and slightly elevated
3 | ATF2^51-70: ATF2 peptide from amino acid residue 51 to 70 (about a 20 amino acid peptide) (MTLKFGPARNDSVIVADQTP; UniProt P15336 51-70, looked up, fragment) |  |  |  |  |  |  |  | efficient inhibition close to that observed with the 50 amino acid peptide |  |  |  | 
